{"source": "paper PMC11574108", "about": "“4-Furanylvinylquinoline derivative as a new scaffold for the design of oxidative stress initiator and glucose transporter inhibitor drugs” (Scientific Reports, 2024)", "key": {"CT-DNA": {"test_system": "CT-DNA", "assay": "Intercalation, spectrophotometric study on CT-DNA", "format": "binding, calf", "conditions": "18 µM CT-DNA, 1.5 h, 37 °C, absorption spectra", "protocol": "Lyophilized calf-thymus DNA (CT-DNA; Sigma-Aldrich) was dissolved in 10 mM Tris-HCl (pH 7.9), mixed gently, and kept overnight at 4 °C. The purity of the CT-DNA solution was determined by measurement of the ratio of UV absorbance at 260 and 280 nm. […] The tested compound was dissolved in DMSO to give a concentration of 8.35 mM. This stock solution was used for preparing new solutions (25, 12.5, 6, and 3 µM) in 1 mL of 10 mM Tris-HCl (pH 7.9). Next, 18 µM CT-DNA was added to the prepared solutions, and the samples were incubated for 1.5 h at 37 °C with occasional vortexing. The measurements of the absorption spectra were performed using a Hitachi U-2900 spectrophotometer in the range of 200–500 nm. The obtained data were analysed using GraphPad Prism v.8.0 (USA).\nTo determine whether and to what extent the compound interacts with DNA, we also performed a spectrophotometric study on CT-DNA. […] (Fig. S2). Nevertheless, under the effect of stress-induced DNA damage in cells, […], which inhibited the CDK1 and cyclin B1 complex. This had the effect of arresting the cell cycle in the G2/M phase in an attempt to repair the DNA damages or induce apoptosis[29],[30]. Abnormal CDK1 activation is often thought to be connected with tumourigenesis. […]"}, "GLUT-1": {"test_system": "GLUT-1", "assay": "Western blot, GLUT-1 protein level", "format": "cell-based, human", "protocol": "The cells (500,000) were seeded in 35 mm Petri dishes (Nunc) and incubated in a solution of the tested compound (0.5 µM and 1 µM) for 24 h and 48 h. The cells were then dissociated using trypsin, collected in Eppendorf tubes, and centrifuged at 2,000 rpm. Next, cell pellets were resuspended in complete RIPA buffer containing a Halt Protease Inhibitor Cocktail and Halt Phosphatase Inhibitor Cocktail along with 0.5 M EDTA (all reagents from Thermo Fisher Scientific) and lysed on ice for 20 min. Afterward, the lysates were sonicated and centrifuged at 10,000 rpm for 10 min at 4 °C. The obtained supernatants were collected for further analysis. The protein concentration was determined using a Micro BCA™ Protein Assay Kit (Thermo Fisher Scientific) according to the manufacturer’s procedure. Equal amounts of proteins (16 µg) were electrophoresed on SDS-Page gels and transferred onto nitrocellulose membranes. Novex Sharp Pre-Stained Protein Standard (Thermo Fisher Scientific) was used as a colored molecular weight marker. The membranes were blocked in 5% non-fat milk prepared in TPBS (PBS supplemented by 0.1% Tween-20) for 1 h. After blocking, the membranes were cut, and then incubated with specific primary monoclonal antibodies (all purchased from Cell Signaling) overnight at 4 °C. The antibodies for the target proteins (CDK1 Mouse mAb #9116, p53 Mouse mAb #2524, FAS Mouse mAb #8023, GLUT-1 Rabbit mAb #12939, HO-1 Rabbit mAb #5853, p21^Waf1/Cip1 Rabbit mAb #2947, PARP #9542) were diluted 1:1000, while the antibodies for the reference proteins (GAPDH Rabbit mAb #2118, β-actin Mouse mAb #3700, and vinculin Rabbit mAb #13901) were diluted 1:2000. The following day, the membranes were washed in TPBS and incubated with horseradish peroxidase (HRP)-conjugated secondary antibodies (Anti-rabbit IgG, HRP-linked Antibody #7074 or Anti-mouse IgG, HRP-linked Antibody #7076) for 1 h at room temperature. The membranes were then washed in TPBS and incubated with a SuperSignal™ West Pico Chemiluminescent Substrate (Thermo Fisher Scientific). Finally, the membranes were visualized using a ChemiDoc™ XRS + System (Bio-Rad). The experiments were carried out four to five times. The densitometric analysis was performed using ImageJ software (Wayne Rasband, National Institutes of Health, USA).\nWe, therefore, decided to test the effect of the tested compound on the level of the main glucose transporter, GLUT-1. […] The validity of the described conclusions was confirmed by the results that were obtained for doxorubicin. in which p53 activation occurred at both tested time points with a concomitant decrease in the GLUT-1 levels. […] The results that were obtained from the measurements of the expression of this protein were so interesting, and at the same time, inconclusive that we additionally decided to determine the effect of the tested derivative 13 on the expression of the genes encoding selected glucose transporters."}}, "data": [{"smiles": "O=[N+]([O-])c1ccc(/C=C/c2ccnc3ccccc23)o1", "note": "[Compound 13]", "values": [{"measurement": "hypochromism", "setting": "CT-DNA", "result": 10.97, "unit": "%"}, {"measurement": "GLUT-1 protein level vs control", "setting": "GLUT-1; HCT 116 p53+/+, 24-h incubation", "result": "decrease"}, {"measurement": "GLUT-1 protein level vs control", "setting": "GLUT-1; HCT 116 p53+/+, 48-h", "result": "rapid activation"}, {"measurement": "GLUT-1 protein level vs control", "setting": "GLUT-1; HCT 116 p53-/-", "result": "decrease"}, {"measurement": "GLUT-1 protein level vs untreated cells", "setting": "GLUT-1; U-251", "result": "not detectable"}]}]}
